The results in this text go back to ChEMBL document CHEMBL1153181, “SAR of N-phenyl piperidine based oral integrin alpha5beta1 antagonists” (Bioorg Med Chem Lett, 2010).

The target of one data set is Integrin alpha-V/beta-3 (Homo sapiens, UniProt P05106+P06756). Description: Inhibition of integrin […] receptor by ELISA. In kind it is protein-complex assay. A general note: An ELISA detects its analyte on a solid surface through an enzyme-linked reagent.
The nature of data set [1]: Metabolic stability in human microsomes assessed as compound remaining at 1 uM after 1 hr. It counts as ADME, Microsome. To be noted: read-out: Stability.
In data set [2] the target is Integrin alpha-IIb/beta-3 (Homo sapiens, UniProt P05106+P08514). Description: Inhibition of integrin alpha2bbeta3 receptor by ELISA. It counts as protein-complex assay.
In the next data set the target is Integrin alpha-V/beta-5 (Homo sapiens, UniProt P06756+P18084). Description: Inhibition of integrin […] receptor by ELISA. In kind it is protein-complex assay.
For data set [3], the target named is T1, Integrin alpha-5/beta-1 (Homo sapiens, UniProt P05556+P08648). The data set can be described thus: Inhibition of integrin alpha5beta1 receptor-mediated HEK293 cell adhesion. It counts as cell-based.
Data set [4] deals with T1, Integrin alpha-5/beta-1. The data set can be described thus: Inhibition of integrin alpha5beta1 receptor by ELISA. It counts as protein-complex assay.
Data set [5] is described as follows: Systemic clearance in Beagle dog at 10 mg/kg, iv administered as bolus dose. In kind it is ADME, organism-based, Canis lupus familiaris. Set-up: dose 10 mg/kg, route intravenous. The following applies: in vivo.
Another data set relates to Canis familiaris. Description: Hepatic blood flow in Beagle dog at 10 mg/kg, iv administered as bolus dose. In kind it is ADME, organism-based, Canis lupus familiaris, Liver. Further details: dose 10 mg/kg, route intravenous. The following applies: in vivo.
Data set [6] in a line: Oral bioavailability in Beagle dog at 10 mg/kg administered as bolus dose. It counts as ADME, organism-based, Canis lupus familiaris. The following applies: in vivo.
The nature of data set [7]: Elimination half life in Beagle dog at 10 mg/kg, iv administered as bolus dose. It counts as ADME, organism-based, Canis lupus familiaris. Set-up: dose 10 mg/kg, route intravenous. The following applies: in vivo, read-out: beta t1/2.
Data set [8] can be described thus: Total body clearance in rat at 1 mg/kg, iv. It counts as ADME, organism-based. Further details: dose 1 mg/kg, route intravenous. To be noted: in vivo.
A short description of data set [9]: Metabolic stability in rat microsomes assessed as compound remaining at 1 uM after 1 hr. It counts as ADME, Microsome. The following applies: read-out: Stability.
A short description of data set [10]: Oral bioavailability in rat at 10 mg/kg, po. The following applies: in vivo. It counts as ADME, organism-based.
Data set [11] is described as follows: Dissociation constant, pKa of the compound. It counts as physicochemical.

Sequence of Integrin alpha-IIb/beta-3 (P05106 27-788 limits assumed): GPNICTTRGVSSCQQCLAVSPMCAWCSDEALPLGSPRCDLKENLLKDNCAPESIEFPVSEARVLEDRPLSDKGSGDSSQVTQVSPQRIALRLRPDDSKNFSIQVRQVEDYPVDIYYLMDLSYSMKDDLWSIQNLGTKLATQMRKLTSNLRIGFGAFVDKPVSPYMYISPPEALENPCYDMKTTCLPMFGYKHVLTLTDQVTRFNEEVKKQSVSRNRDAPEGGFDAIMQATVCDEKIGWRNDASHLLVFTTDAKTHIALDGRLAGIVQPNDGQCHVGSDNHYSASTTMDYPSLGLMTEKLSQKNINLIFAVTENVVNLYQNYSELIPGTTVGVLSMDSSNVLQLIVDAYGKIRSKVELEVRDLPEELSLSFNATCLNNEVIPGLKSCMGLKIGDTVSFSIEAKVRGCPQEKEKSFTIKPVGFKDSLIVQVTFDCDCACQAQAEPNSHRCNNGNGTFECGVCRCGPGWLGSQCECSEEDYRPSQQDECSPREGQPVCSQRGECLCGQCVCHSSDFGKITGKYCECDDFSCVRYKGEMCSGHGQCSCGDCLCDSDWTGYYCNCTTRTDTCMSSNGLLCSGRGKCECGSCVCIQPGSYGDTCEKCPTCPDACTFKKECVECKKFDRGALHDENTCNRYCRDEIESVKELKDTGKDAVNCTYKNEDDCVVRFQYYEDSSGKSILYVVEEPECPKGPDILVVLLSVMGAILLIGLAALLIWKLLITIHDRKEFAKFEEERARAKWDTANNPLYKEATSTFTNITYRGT
Sequence of Integrin alpha-IIb/beta-3 (P08514 32-887 limits assumed): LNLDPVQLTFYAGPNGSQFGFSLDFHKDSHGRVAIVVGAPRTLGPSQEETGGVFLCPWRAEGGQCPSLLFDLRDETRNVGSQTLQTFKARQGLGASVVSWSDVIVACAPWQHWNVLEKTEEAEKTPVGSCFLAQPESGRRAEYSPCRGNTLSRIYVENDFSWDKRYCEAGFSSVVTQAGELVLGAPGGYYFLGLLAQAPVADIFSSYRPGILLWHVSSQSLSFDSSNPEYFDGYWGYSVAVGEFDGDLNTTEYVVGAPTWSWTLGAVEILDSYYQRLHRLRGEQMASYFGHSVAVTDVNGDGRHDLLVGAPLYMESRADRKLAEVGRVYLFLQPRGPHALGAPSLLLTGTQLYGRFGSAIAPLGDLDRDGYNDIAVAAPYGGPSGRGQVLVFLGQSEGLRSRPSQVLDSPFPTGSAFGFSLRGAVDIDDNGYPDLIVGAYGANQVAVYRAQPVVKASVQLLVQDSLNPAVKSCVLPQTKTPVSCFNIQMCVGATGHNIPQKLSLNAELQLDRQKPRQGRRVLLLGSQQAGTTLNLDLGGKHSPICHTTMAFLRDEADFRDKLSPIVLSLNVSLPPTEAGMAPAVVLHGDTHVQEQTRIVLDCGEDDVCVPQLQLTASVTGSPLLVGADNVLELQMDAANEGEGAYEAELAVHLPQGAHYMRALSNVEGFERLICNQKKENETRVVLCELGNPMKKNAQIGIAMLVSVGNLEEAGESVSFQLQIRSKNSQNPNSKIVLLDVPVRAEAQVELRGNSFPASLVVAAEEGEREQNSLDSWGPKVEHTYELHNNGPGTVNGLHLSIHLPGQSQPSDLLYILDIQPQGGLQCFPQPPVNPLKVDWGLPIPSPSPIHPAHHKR
Sequence of Integrin alpha-IIb/beta-3 (P08514 891-1039 limits assumed): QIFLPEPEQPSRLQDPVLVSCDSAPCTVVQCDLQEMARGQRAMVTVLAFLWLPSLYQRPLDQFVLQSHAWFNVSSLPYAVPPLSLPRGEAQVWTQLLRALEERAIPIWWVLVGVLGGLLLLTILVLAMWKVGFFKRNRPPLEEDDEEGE
Sequence of Integrin alpha-V/beta-3 (P05106 27-788 limits assumed): as the sequence (P05106 27-788 limits assumed) above
Sequence of Integrin alpha-V/beta-3 (P06756 31-889 limits assumed): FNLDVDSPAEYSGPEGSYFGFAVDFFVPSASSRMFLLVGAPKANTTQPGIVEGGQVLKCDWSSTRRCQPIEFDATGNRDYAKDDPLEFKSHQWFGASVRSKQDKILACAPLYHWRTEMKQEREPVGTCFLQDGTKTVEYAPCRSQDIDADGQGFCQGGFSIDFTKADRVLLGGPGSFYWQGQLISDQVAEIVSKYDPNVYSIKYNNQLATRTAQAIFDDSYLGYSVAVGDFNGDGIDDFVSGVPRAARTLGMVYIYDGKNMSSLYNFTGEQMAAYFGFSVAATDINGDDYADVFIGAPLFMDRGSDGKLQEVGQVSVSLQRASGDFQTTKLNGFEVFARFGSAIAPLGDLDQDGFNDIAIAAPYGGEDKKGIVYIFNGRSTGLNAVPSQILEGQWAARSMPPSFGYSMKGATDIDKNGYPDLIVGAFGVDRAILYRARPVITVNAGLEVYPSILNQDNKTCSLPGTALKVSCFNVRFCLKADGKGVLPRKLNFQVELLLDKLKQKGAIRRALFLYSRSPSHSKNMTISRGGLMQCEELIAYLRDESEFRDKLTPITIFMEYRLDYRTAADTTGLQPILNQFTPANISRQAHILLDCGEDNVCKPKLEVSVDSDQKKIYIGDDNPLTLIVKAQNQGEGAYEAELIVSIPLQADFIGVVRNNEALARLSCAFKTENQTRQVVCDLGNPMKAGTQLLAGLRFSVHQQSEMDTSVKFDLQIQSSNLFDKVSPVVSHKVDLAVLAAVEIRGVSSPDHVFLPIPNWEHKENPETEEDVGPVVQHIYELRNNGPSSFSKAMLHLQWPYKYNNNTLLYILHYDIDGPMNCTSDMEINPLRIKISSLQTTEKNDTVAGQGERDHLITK
Sequence of Integrin alpha-V/beta-3 (P06756 891-1048 limits assumed): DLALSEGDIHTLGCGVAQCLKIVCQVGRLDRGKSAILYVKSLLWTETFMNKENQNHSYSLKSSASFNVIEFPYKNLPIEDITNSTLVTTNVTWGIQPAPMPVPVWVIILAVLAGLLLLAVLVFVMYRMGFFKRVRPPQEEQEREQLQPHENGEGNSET
T1 sequence (P05556 21-798 limits assumed): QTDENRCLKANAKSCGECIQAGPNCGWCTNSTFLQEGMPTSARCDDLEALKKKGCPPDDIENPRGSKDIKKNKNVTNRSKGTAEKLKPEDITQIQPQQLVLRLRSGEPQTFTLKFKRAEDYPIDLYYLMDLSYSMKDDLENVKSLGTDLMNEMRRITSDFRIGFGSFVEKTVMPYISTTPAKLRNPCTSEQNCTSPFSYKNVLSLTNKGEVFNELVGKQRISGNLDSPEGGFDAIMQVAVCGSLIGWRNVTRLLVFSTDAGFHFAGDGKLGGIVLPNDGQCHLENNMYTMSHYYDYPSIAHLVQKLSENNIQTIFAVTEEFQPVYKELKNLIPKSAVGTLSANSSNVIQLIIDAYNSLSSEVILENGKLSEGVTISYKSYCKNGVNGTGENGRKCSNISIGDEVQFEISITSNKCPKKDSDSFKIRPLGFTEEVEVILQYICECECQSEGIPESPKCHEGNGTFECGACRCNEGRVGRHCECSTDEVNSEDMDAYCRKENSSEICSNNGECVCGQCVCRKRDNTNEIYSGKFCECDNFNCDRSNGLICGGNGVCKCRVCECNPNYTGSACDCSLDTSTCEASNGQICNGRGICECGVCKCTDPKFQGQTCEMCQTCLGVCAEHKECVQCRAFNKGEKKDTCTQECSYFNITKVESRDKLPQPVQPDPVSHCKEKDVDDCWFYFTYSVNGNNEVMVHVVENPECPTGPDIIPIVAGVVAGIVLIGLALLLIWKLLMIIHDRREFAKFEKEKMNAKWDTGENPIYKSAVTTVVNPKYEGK
T1 sequence (P08648 42-894 limits assumed): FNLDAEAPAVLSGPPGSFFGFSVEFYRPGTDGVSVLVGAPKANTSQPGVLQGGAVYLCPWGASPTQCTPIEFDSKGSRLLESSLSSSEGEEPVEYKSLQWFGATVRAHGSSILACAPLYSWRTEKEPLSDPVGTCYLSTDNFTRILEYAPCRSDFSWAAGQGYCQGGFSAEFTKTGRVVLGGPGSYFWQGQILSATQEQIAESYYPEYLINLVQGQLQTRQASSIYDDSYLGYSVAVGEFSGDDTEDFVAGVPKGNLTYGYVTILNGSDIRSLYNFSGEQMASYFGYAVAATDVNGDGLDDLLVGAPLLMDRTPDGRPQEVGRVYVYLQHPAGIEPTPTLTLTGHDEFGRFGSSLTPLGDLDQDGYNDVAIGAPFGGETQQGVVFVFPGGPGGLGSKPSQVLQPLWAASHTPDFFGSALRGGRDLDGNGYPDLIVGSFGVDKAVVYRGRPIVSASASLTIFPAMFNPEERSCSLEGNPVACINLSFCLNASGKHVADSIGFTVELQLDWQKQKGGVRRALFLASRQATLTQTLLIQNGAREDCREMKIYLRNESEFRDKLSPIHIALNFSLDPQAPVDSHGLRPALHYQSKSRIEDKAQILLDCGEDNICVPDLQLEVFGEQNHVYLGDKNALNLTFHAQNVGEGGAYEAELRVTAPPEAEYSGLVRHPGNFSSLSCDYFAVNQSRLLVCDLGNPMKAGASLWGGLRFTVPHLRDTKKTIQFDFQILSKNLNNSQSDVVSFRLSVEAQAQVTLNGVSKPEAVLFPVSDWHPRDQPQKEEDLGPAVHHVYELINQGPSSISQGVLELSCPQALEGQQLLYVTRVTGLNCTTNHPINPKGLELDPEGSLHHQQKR
T1 sequence (P08648 895-1049 limits assumed): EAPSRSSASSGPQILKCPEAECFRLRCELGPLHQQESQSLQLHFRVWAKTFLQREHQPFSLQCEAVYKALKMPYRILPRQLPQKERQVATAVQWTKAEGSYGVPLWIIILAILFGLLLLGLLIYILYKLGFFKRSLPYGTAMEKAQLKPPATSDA

Turning to `CCc1cc(F)cc(C)c1C(=O)NC(Cc1ccc(N2CCC(CNc3ccccn3)CC2)cc1)C(=O)O` (stereo not given), the IC50 (usually the point on the concentration scale where inhibition reaches its midpoint) against Integrin alpha-V/beta-3 is 1050 nM; in data set [2] it was 71700 nM; against Integrin alpha-V/beta-5, 11700 nM; against Integrin alpha-5/beta-1 [3], 76 nM; against Integrin alpha-5/beta-1 [4], 2 nM. Besides, the remaining at 1 h, 1 µM in data set [1] amounted to 105%.

For `CCc1cc(F)cc(C)c1C(=O)N[C@@H](Cc1ccc(N2CCC(CNc3ccccn3)CC2)cc1)C(=O)O`, in data set [5], the clearance (as a rule, the rate of elimination divided by the concentration) was determined as 11 mL/min/kg. Also, the IC50 against Integrin alpha-V/beta-3 came to 614 nM; in [2], 121000 nM; on Integrin alpha-V/beta-5, 12400 nM; on Integrin alpha-5/beta-1 [3], 21 nM; on Integrin alpha-5/beta-1 [4], 0.9 nM. In the data set on Canis familiaris, this molecule gave an LBF of 37%. For the same molecule, the bioavailability – broadly, dose-corrected exposure relative to a reference, in per cent – in [6] was found to be 11%. Also, the half-life in data set [7] turned out to be 3.58 h.

Consider `CCc1cc(F)cc(C)c1C(=O)N[C@H](Cc1ccc(N2CCC(CNc3ccccn3)CC2)cc1)C(=O)O`, for which the IC50 turned out to be 16600 nM against Integrin alpha-V/beta-3; 159000 nM in data set [2]; 15600 nM on Integrin alpha-V/beta-5; 6910 nM at Integrin alpha-5/beta-1 [3]; 351 nM against Integrin alpha-5/beta-1 [4].

Regarding `COc1ccnc(NCC2CCN(c3ccc(CC(NC(=O)c4c(C)cc(C)cc4C)C(=O)O)cc3)CC2)c1` (stereo not given), the clearance in [8] came to 110 mL/min/kg. In addition, the remaining at 1 h, 1 µM in data set [9] is 62%. Moreover, the IC50 against Integrin alpha-V/beta-3 was 89 nM; against Integrin alpha-V/beta-5 it was 3540 nM; against Integrin alpha-5/beta-1 [3] it was 34 nM; against Integrin alpha-5/beta-1 [4], 0.92 nM. Besides, in [10], the bioavailability was determined as 6%. Also, the pKa (as a rule, the negative logarithm of the acid dissociation constant) in data set [11] amounted to 7.7.

In the case of `Cc1cccc(C)c1C(=O)NC(Cc1ccc(N2CCC(CNc3ccccn3)CC2)cc1)C(=O)O` (stereo not given), the IC50 against Integrin alpha-V/beta-3 is 239 nM; in data set [2], 77700 nM; against Integrin alpha-V/beta-5, 1870 nM; against Integrin alpha-5/beta-1 [4], 1.6 nM. Also, the remaining at 1 h, 1 µM in [1] turned out to be 59%.

Turning to `CCc1cccc(C)c1C(=O)NC(Cc1ccc(N2CCC(CNc3ccccn3)CC2)cc1)C(=O)O` (stereo not given), the IC50 against Integrin alpha-V/beta-3 was determined as 648 nM; in data set [2], 87200 nM; on Integrin alpha-V/beta-5, 11500 nM; against Integrin alpha-5/beta-1 [4], 2.2 nM. In addition, the remaining at 1 h, 1 µM in data set [1] was found to be 52%.

For `Cc1cc(F)cc(C)c1C(=O)NC(Cc1ccc(N2CCC(CNc3ccccn3)CC2)cc1)C(=O)O` (stereo not given), the IC50 against Integrin alpha-V/beta-3 amounted to 402 nM; in [2] it was 105000 nM; at Integrin alpha-V/beta-5 it was 8290 nM; at Integrin alpha-5/beta-1 [4] it was 2.7 nM. In addition, the remaining at 1 h, 1 µM in [1] turned out to be 69%.

Consider `O=C(O)[C@H](Cc1ccc(N2CCC(CNc3ccccn3)CC2)cc1)N1Cc2ccccc2C1=O`, for which the IC50 turned out to be 13.4 nM at Integrin alpha-V/beta-3, 76700 nM in [2], 3320 nM against Integrin alpha-V/beta-5 and 234 nM against Integrin alpha-5/beta-1 [4].

As to `Cc1cc(C)c(C(=O)NC(Cc2ccc(N3CCC(CNc4ccccn4)CC3)cc2)C(=O)O)c(C)c1` (stereo not given), the clearance in data set [8] is 16 mL/min/kg. In data set [9], the remaining at 1 h, 1 µM was 85%. Moreover, the IC50 at Integrin alpha-V/beta-3 worked out at 642 nM; in data set [2], 40200 nM; against Integrin alpha-V/beta-5 it was 15000 nM; against Integrin alpha-5/beta-1 [3], 198 nM; against Integrin alpha-5/beta-1 [4] it was 2.1 nM. In data set [10], this molecule had a bioavailability of 24%. For the same molecule, the pKa in data set [11] turned out to be 7.

Take `Cc1ccnc(NCC2CCN(c3ccc(CC(NC(=O)c4c(C)cc(C)cc4C)C(=O)O)cc3)CC2)c1` (stereo not given): in [9], the remaining at 1 h, 1 µM turned out to be 77%. For the same molecule, the IC50 in [2] is 23400 nM; against Integrin alpha-V/beta-5 it was 10700 nM; against Integrin alpha-5/beta-1 [3] it was 69 nM. This molecule also displayed a pKa in data set [11] of 7.5.

`O=C(N[C@@H](Cc1ccc(N2CCC(CNc3ccccn3)CC2)cc1)C(=O)O)c1ccccc1`: the IC50 amounted to 4.3 nM at Integrin alpha-V/beta-3, 14800 nM in [2], 32.1 nM at Integrin alpha-V/beta-5 and 70 nM at Integrin alpha-5/beta-1 [4].
